“And” between values parts separate entries of the source, which are not always exact repeats. Identical values can stand only once.
Assays:
Format in all cases: cell-based, human
[1] = test system: Donor 3 GMA T-Cell Lines; test: ATP proliferation assay (CellTiter Glo), Donor 3 GMA T-cell lines, incl. reactivity to non-canonical GA peptides; conditions: T-cell line 165-H11G
[2] = test system: Donor 3 COP T-Cell Lines; test: ATP proliferation assay (CellTiter Glo), Donor 3 COP T-cell lines, incl. reactivity to non-canonical GA peptides; conditions: for Non-Canonical Peptide Non-Reactivity: proliferation <2 times no antigen control
[3] = test system: Donor 4 COP T-Cell Lines; test: ATP proliferation assay (CellTiter Glo), Donor 4 COP T-cell lines, incl. reactivity to non-canonical GA peptides; conditions: for Non-Canonical Peptide Non-Reactivity: proliferation <2 times no antigen control; for Proliferation (luminescent ATP assay), Mean: T-cell line 205-1F4, Day 71, autologous B-LCL

poly (Glu-Lys-Tyr; 6:3:1) [GLT 631]
Proliferation (luminescent ATP assay), Mean ([1]; 1 μg/mL antigen, Day 50 of culturing, No Antigen Value 1485): 2763 RLU
Proliferation (luminescent ATP assay), Mean ([1]; 1.25 μg/mL antigen, autologous B-LCL): 29 RLU
Proliferation (luminescent ATP assay), Mean ([1]; 2.5 μg/mL antigen, autologous B-LCL): 344 RLU
Proliferation (luminescent ATP assay), Mean ([1]; 3 μg/mL antigen, Day 50 of culturing, No Antigen Value 1485): 2875 RLU
Proliferation (luminescent ATP assay), Mean ([1]; 5 μg/mL antigen, autologous B-LCL): 448 RLU
Proliferation (luminescent ATP assay), Mean ([1]; 10 μg/mL antigen, Day 50 of culturing, No Antigen Value 1485): 3028 RLU
Proliferation (luminescent ATP assay), Mean ([1]; 10 μg/mL antigen, autologous B-LCL): 435 RLU
Proliferation (luminescent ATP assay), Mean ([1]; 30 μg/mL antigen, Day 50 of culturing, No Antigen Value 1485): 3093 RLU
Non-Canonical Peptide Non-Reactivity ([2]; 165-B6C): GLT 631
Non-Canonical Peptide Non-Reactivity ([2]; 165-C4C): GLT 631
Non-Canonical Peptide Non-Reactivity ([2]; 165-C7C): GLT 631
proliferation response to non-canonical peptides ([2]; 165-E3C, separate experiment): did not react
Non-Canonical Peptide Non-Reactivity ([2]; 165-F3C): GLT 631
Non-Canonical Peptide Non-Reactivity ([2]; 165-F6C): GLT 631
Non-Canonical Peptide Non-Reactivity ([2]; 165-U3C (so in the source)): GLT 631
Nonreactive T-Cell Line ([2]; Donor 3 COP lines, stimulation with the non-canonical GA peptide): 165-B6C (Donor 3) and 165-C4C (Donor 3) and 165-C7C (Donor 3) and 165-E3C (Donor 3) and 165-F3C (Donor 3) and 165-F6C (Donor 3)
Proliferation (luminescent ATP assay), Mean ([2]; T-cell line 165-C4C, 1 μg/mL antigen, Day 66 of culture, 0 μg/mL 1881): 2465
Proliferation (luminescent ATP assay), Mean ([2]; T-cell line 165-C4C, 3 μg/mL antigen, Day 66 of culture, 0 μg/mL 1881): 2677
Proliferation (luminescent ATP assay), Mean ([2]; T-cell line 165-C4C, 10 μg/mL antigen, Day 66 of culture, 0 μg/mL 1881): 2939
Proliferation (luminescent ATP assay), Mean ([2]; T-cell line 165-C7C, 1.25 μg/mL antigen, autologous B-LCL): 273 RLU
Proliferation (luminescent ATP assay), Mean ([2]; T-cell line 165-C7C, 2.5 μg/mL antigen, autologous B-LCL): 219 RLU
Proliferation (luminescent ATP assay), Mean ([2]; T-cell line 165-C7C, 5 μg/mL antigen, autologous B-LCL): 273 RLU
Proliferation (luminescent ATP assay), Mean ([2]; T-cell line 165-C7C, 10 μg/mL antigen, autologous B-LCL): 219 RLU
Proliferation (luminescent ATP assay), Mean ([2]; T-cell line 165-F3C, 1 μg/mL antigen, Day 77 of culture, 0 μg/mL 1563): 2325
Proliferation (luminescent ATP assay), Mean ([2]; T-cell line 165-F3C, 3 μg/mL antigen, Day 77 of culture, 0 μg/mL 1563): 2557
Proliferation (luminescent ATP assay), Mean ([2]; T-cell line 165-F3C, 10 μg/mL antigen, Day 77 of culture, 0 μg/mL 1563): 2724
Proliferation (luminescent ATP assay), Mean ([2]; T-cell line 165-F6C, 1.25 μg/mL antigen, Day 76 of culture, No Antigen value 517): 501
Proliferation (luminescent ATP assay), Mean ([2]; T-cell line 165-F6C, 2.5 μg/mL antigen, Day 76 of culture, No Antigen value 517): 416
Proliferation (luminescent ATP assay), Mean ([2]; T-cell line 165-F6C, 5 μg/mL antigen, Day 76 of culture, No Antigen value 517): 482
Proliferation (luminescent ATP assay), Mean ([2]; T-cell line 165-F6C, 10 μg/mL antigen, Day 76 of culture, No Antigen value 517): 474
Non-Canonical Peptide Non-Reactivity ([3]; 205-1B4): GLT 631
Non-Canonical Peptide Non-Reactivity ([3]; 205-1C4): GLT 631
Non-Canonical Peptide Non-Reactivity ([3]; 205-1F4): GLT 631
Non-Canonical Peptide Non-Reactivity ([3]; 205-1H3): GLT 631
Non-Canonical Peptide Non-Reactivity ([3]; 205-1H5): GLT 631
reactivity to non-canonical GA peptides ([3]; 205-1H7, after seven stimulations, 0, 1, 10, 30 μg/mL): reactivity
Non-Canonical Peptide Reactivity ([3]; 205-1H7, at least one proliferation value >=2 times no antigen control): GLT 631
Non-Canonical Peptide Non-Reactivity ([3]; 205-1H11): GLT 631
Reactive T-Cell Line ([3]; Donor 4 COP lines, at least a 50% increase in proliferation relative to a control after stimulation with the non-canonical GA peptide): 205-1H7 (Donor 4)
Nonreactive T-Cell Line ([3]; Donor 4 COP lines, stimulation with the non-canonical GA peptide): 205-1B4 (Donor 4) and 205-1C4 (Donor 4) and 205-1F4 (Donor 4) and 205-1H3 (Donor 4) and 205-1H5 (Donor 4) and 205-1H11 (Donor 4)
Reactivity (proliferation), Mean ([3]; T-cell line 205-1B4, 1 μg/mL antigen, No Antigen 830): 912 RLU
Reactivity (proliferation), Mean ([3]; T-cell line 205-1B4, 3 μg/mL antigen, No Antigen 830): 1059 RLU
Reactivity (proliferation), Mean ([3]; T-cell line 205-1B4, 10 μg/mL antigen, No Antigen 830): 1387 RLU
Reactivity (proliferation), Mean ([3]; T-cell line 205-1B4, 30 μg/mL antigen, No Antigen 830): 1389 RLU
Reactivity (proliferation), Mean ([3]; T-cell line 205-1C4, 1 μg/mL antigen, No Antigen 4464): 4559 RLU
Reactivity (proliferation), Mean ([3]; T-cell line 205-1C4, 3 μg/mL antigen, No Antigen 4464): 4934 RLU
Reactivity (proliferation), Mean ([3]; T-cell line 205-1C4, 10 μg/mL antigen, No Antigen 4464): 5616 RLU
Reactivity (proliferation), Mean ([3]; T-cell line 205-1C4, 30 μg/mL antigen, No Antigen 4464): 5782 RLU
Proliferation (luminescent ATP assay), Mean ([3]; 1 μg/mL antigen): 1938
Proliferation (luminescent ATP assay), Mean ([3]; 3 μg/mL antigen): 1863
Proliferation (luminescent ATP assay), Mean ([3]; 10 μg/mL antigen): 2504
Reactivity (proliferation), Mean ([3]; T-cell line 205-1H5, 1 μg/mL antigen, No Antigen 749): 710 RLU
Reactivity (proliferation), Mean ([3]; T-cell line 205-1H5, 3 μg/mL antigen, No Antigen 749): 885 RLU
Reactivity (proliferation), Mean ([3]; T-cell line 205-1H5, 10 μg/mL antigen, No Antigen 749): 1153 RLU
Reactivity (proliferation), Mean ([3]; T-cell line 205-1H5, 30 μg/mL antigen, No Antigen 749): 1294 RLU

— patent publication US9995734B2, “Human T cell line assay for evaluating the immunologic identity of glatiramer acetate preparations” (Mylan Inc., priority 2013, dated 2018)
